Patent US12172971B1, “N′-(2-naphthoyloxy)-2-(benzo[d]oxazol-2-yl)acetimidamide as an antimicrobial compound” (priority 2023, dated 2024)

Tested on: Bacillus cereus, Staphylococcus aureus, Pseudomonas aeruginosa, Escherichia coli, Aspergillus flavus, Chrysosporium keratinophilum
Test: agar plate disc-diffusion antimicrobial test
Assay type: cell-based
Conditions: discs wetted with 10 μL of 10 mg/mL in DMSO; 37° C., 48 h, 72 h for fungi; gram positive and gram-negative bacteria and fungi
Method: The agar plate disc-diffusion method was applied. Sterilized filter papers (6 mm in diameter) were wetted with 10 μL of a solution of N′-(2-naphthoyloxy)-2-(benzo[d]oxazol-2-yl)acetimidamide (3) to be tested, containing 10 mg/mL in DMSO, and the discs were allowed to air dry. The discs were then placed onto the surface of agar plates (nutrient agar for bacteria and Sabouraud's dextrose agar for fungi) seeded with the test organism. Each plate contained 15 mL of the agar medium, previously seeded with 0.2 mL of the broth culture of each organism pregrown for 18 hours. The plates were incubated at 37° C. for 48 h, and 72 h for fungi. The inhibition zones were measured in mm. Discs impregnated with DMSO were used as a control, and its inhibition zone was subtracted from the tested compound actual inhibition zone. […] The antibacterial activity was screened against gram positive bacteria namely Bacillus cereus and Staphylococcus aureus and gram-negative bacterial strains namely Pseudomonas aeruginosa and Escherichia coli, while the antifungal activity was screened against Aspergillus flavus and Chrysosporium keratinophilum.

N/C(Cc1nc2ccccc2o1)=N\OC(=O)c1ccc2ccccc2c1 [compound 3, N′-(2-naphthoyloxy)-2-(benzo[d]oxazol-2-yl)acetimidamide]
antimicrobial activity (disc-diffusion inhibition zones): high antimicrobial activities
